Experiments:
eye of subjects = test: Presbyopia: pupil diameter after self-administered pilocarpine micro-dose; type: in vivo, human
Procedure: A 10 μl micro-dose of a 1% pilocarpine solution was self-administered using an electromagnetic actuated fluid delivery device, e.g., as described above, by three subjects to their own eye. The age range of the subjects was 52 years to 68 years, and all subjects were male. The pilocarpine micro-dose was self-administered by the subjects.
Baseline, pre-dose values of pupil diameter and near visual acuity in both eyes prior to dosing was measured for all subjects, and then following the baseline measurements, the subjects were dosed in only one eye (the eye with the poorer visual acuity) with the micro-dose pilocarpine solution. Approximately 45 to 60 minutes after dosing, pupil diameter and near visual acuity were again tested. Near visual acuity was measured using a Snellen card at a distance of 40 cm. A tabulation of results is given below in Table A.

[1] = tested on: patients with primary open angle glaucoma; test: Trial 2: intraocular pressure by Goldmann applanation tonometry; type: in vivo, human; details: AcuStream vs standard eye dropper; Wilcoxon Ranked Sum test, p=0.3447
Procedure: Trial 2 compared the efficacy (dose volume equivalence) of 0.005% w/v latanoprost for intraocular pressure reduction when delivered via AcuStream™ (pre-trial calibration volume=9.2 μl) versus the standard eye dropper for topical drug delivery (approximate volume=30 μl).
Patients included in Trial 2 have previously been diagnosed with primary open angle glaucoma on the basis of intraocular pressure and visual field testing, fundus examination or optical coherence tomography (OCT) data and are currently on prostaglandin analog medical therapy. Patients with corneal abnormalities that would interfere with accurate IOP measurements with applanation tonometry, use of an oral or topical ophthalmic steroids within the past 14 days from screening date, any active ocular surface or anterior segment disease, or progressive field loss during the past year were excluded from the study. Thirteen men and five women participated in the trial. […]
After performing slit lamp examinations on each patient to verify eligibility and obtaining informed consent, intraocular pressure (IOP) was measured by a sole experienced examiner who was blind to the randomized conditions. […]
Latanoprost solution was administered by a sole ophthalmologist to both eyes of each patient, based on the pre-determined randomized condition.

| SMILES | miotic effect in non-dosed eye (eye of subjects) | difference in IOP reduction between groups [1] |
| --- | --- | --- |
| CC[C@@H]1C(=O)OC[C@@H]1Cc1cncn1C [pilocarpine] | no miotic effect |  |
| CC(C)OC(=O)CCC/C=C\C[C@@H]1[C@@H](CC[C@@H](O)CCc2ccccc2)[C@H](O)C[C@@H]1O [latanoprost] |  | no statistically significant differences |

— patent US12350194B1, “Topical ocular delivery of fluids with controlled mass dosing and wireless communication” (Bausch + Lomb Ireland Limited, priority 2018, dated 2025)
